{"source": "patent US20120322813A1", "about": "“RUTAECARPINE DERIVATIVES FOR TREATING CAFFEINE TOXICITY” (priority 2011, published 2012)", "test_system": "CYP1A2", "assay": "MEROD assay in live Hepa1c1c7 cells incubated with test compound (CYP1A2 induction)", "type": "cell-based, mouse", "details": "live Hepa1c1c7 cells incubated with 10 μM compound", "source_text": "FIG. 1 illustrates how caffeine is primarily metabolized to paraxanthine via CYP1A2 enzyme in a human, according to some embodiments. The MEROD (methoxyresorufin-O-demethylase) assay measures the activity of the enzyme (CYP1A2) that converts methoxyresorufin (probe substrate) to resorufin (demethylation) in the presence of NADPH. The resulting resorufin concentration can be measured using a fluorescence reader by setting the excitation and emission wavelengths at 544 and 590 nm, respectively.\nFor MEROD assay in live cells, Hepa1c1c7 cells were cultured in either 6-well or 24-well-plates. For the 24-well plate experiment, after confluent cells were incubated for approximately 20 hours with either resorufin, nitro-resorufin, chloro-resorufin, 3-MC or DMSO (in triplicates), culture media was removed and 180 μL fresh culture media containing […] methoxyresorufin was added per well. After 1 hour incubation at 37° C., […] aliquot was taken from each well and the formation of resorufin was measured by fluorescence. […] After 5 hours incubation at 37° C., 100 μL aliquot was taken from each well, centrifuged at 12,000 g at RT for ˜5 min and the supernatants were placed into wells of a 96-well fluorescence plate and the formation of resorufin was measured by fluorescence.", "data": [{"smiles": "O=c1c2ccc(Cl)cc2nc2n1CCc1c-2[nH]c2ccccc12", "note": "[chloro-rutaecarpine]", "values": [{"measurement": "formation of resorufin (MEROD)", "value": "no marked difference"}]}]}
